Legend:
[1] = target: Myc-GyrB-FGFR fusion protein (Homo sapiens, UniProt P11362); assay: Biochemical FGFR assay (ELISA); conditions: read-out: bio fgfR1 IC50
[2] = target: T1, PDGFR-β (Homo sapiens, UniProt P09619); assay: Biochemical PDGFR assay (ELISA, PDGFR-β expressing NIH 3T3 cell lysate); conditions: read-out: bio PDGF IC50
T1 construct: host or cells: NIH 3T3
From the text: This assay measures the in vitro kinase activity of PDGFR using ELISA.
Unless otherwise noted, the preparation of working solution-of the following reagents is the same as that for the Biochemical EGFR assay, above. • 1. […] 28D4C10 monoclonal anti-PDGFR antibody (Biochemistry Lab, SUGEN, Inc.). • 3. PBS (Dulbecco's Phosphate-Buffered Saline, Gibco Catalog No. 450-1300EB) • 4. TBST Buffer. • 5. Blocking Buffer. • 6. PDGFR-β expressing NIH 3T3 cell lysate (Screening Lab, SUGEN, Inc.). • 7. TBS Buffer. • 8. TBS+10% DMSO. • 9. […] MnCl2. • 11. Kinase buffer phosphorylation mix.
• 12. NUNC 96-well V bottom polypropylene plates (Applied Scientific Cat. No. AS-72092). • 13. Ethylenediaminetetraacetic acid (EDTA). • 14. Rabbit polyclonal anti-phosphotyrosine serum (Biochemistry Lab, SUGEN, Inc.). • 15. Goat anti-rabbit IgG peroxidase conjugate (Biosource Cat. No. ALI0404). • 16. 2,2′-azino-bis(3-ethylbenzthiazoline-6-sulfonic acid) (ABTS, Sigma Cat. No. A-1888). • 17. Hydrogen peroxide 30% solution (Fisher Cat. No. H325). • 18. ABTS/H2O2. • 19. 0.2 M HCl.
Procedure • 1. Coat Corning 96 well ELISA plates with 0.5 μg 28D4C10 in 100 μl PBS per well, store overnight at 4° C. • 2. Remove unbound 28D4C10 from wells by inverting plate to remove liquid. Wash 1× with dH2O. Pat the plate on a paper towel to remove excess liquid. • 3. Add 150 μl of Blocking Buffer to each well. Incubate for 30 min. at room temperature with shaking. • 4. Wash plate 3× with deionized water, then once with TBST. Pat plate on a paper towel to remove excess liquid and bubbles. • 5. Dilute lysate in HNTG (10 μg lysate/100 μl HNTG) • 6. Add 100 μl of diluted lysate to each well. Shake at room temperature for 60 min. • 7. Wash plates as described in 4, above. • 8. Add 80 μl working kinase buffer mix to ELISA plate containing captured PDGFR. • 9. Dilute test compound 1:10 in TBS in 96-well polypropylene plates (i.e., 10 μl compound+90 μl TBS). • 10. Add 10 μl diluted test compound to ELISA plate. […] Incubate for 30 minutes while shaking at room temperature. • 12. Add 10 μl ATP directly to all wells except negative control well (final well volume should be approximately 100 μl with 20 μM ATP in each well.) Incubate 30 minutes while shaking. • 13. After 30 minutes, stop reaction by adding 10 μl of 200 mM EDTA (pH 8.0) to each well. • 14. Wash 4× with deionized water, twice with TBST. • 15. Add 100 μl anti-phosphotyrosine (1:3000 dilution in TBST) per well. Incubate 30-45 min. at room temperature, with shaking. • 16. Wash as described in 4, above. • 17. Add 100 μl Biosource Goat anti-rabbit IgG peroxidase conjugate (1:2000 dilution in TBST) to each well. Incubate 30 min. at room temperature, with shaking. • 18. Wash as described in 4, above. • 19. Add 100 μl of ABTS/H2O2 solution to each well. • 20. Incubate 10 to 30 minutes with shaking. Remove any bubbles. • 21. If necessary stop reaction with the addition of 100 μl 0.2 M HCl per well. • 22. Read assay on Dynatech MR7000 ELISA reader: test filter: 410 nM, reference filter: 630 nM.

[3] = target: T2, chimeric receptor containing the EGFR extracellular domain and intracellular HER2 kinase domain (Homo sapiens, UniProt P04626); assay: EGF Receptor-HER2 chimeric receptor assay in whole cells (ELISA); type: cell-based; conditions: read-out: HER-2 kinase IC50
T2 construct: fused on or other part: EGFR ectodomain + HER2 intracellular part, ATP-site indolinones: HER2's kinase
T2 sequence (P04626 720-1255 limits assumed, change not shown): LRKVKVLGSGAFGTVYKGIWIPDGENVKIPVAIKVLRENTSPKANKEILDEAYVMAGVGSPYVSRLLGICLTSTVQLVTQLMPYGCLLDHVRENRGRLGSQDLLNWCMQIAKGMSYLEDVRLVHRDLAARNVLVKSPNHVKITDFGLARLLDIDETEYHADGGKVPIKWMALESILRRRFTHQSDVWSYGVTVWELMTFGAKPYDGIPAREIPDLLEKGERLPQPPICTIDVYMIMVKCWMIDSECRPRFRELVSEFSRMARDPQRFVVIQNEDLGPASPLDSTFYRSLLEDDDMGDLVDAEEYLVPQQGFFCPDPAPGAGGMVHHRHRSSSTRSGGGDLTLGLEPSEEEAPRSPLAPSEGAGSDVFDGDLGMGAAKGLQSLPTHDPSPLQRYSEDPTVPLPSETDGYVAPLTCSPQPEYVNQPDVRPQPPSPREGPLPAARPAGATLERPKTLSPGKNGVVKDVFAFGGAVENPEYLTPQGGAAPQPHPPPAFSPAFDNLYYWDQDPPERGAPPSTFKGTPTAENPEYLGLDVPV
Protocol: EGF Receptor-HER2 Chimeric Receptor Assay In Whole Cells.
HER2 kinase activity in whole EGFR-NIH3T3 cells are measured as described below:
• a. […] 05-101 (UBI) (a monoclonal antibody recognizing an EGFR extracellular domain). • c. Anti-phosphotyrosine antibody (anti-Ptyr) (polyclonal) (see, Fendley, et al., supra). • d. Detection antibody: Goat anti-rabbit IgG horseradish peroxidase conjugate, TAGO, Inc., Burlingame, Calif. • e. TBST buffer:
• h. Stock reagents of:
Pre-coat ELISA Plate • 1. […] Coated plates are good for up to 10 days when stored at 4° C. • 2. On day of use, remove coating buffer and replace with 100 μl blocking buffer (5% Carnation Instant Non-Fat Dry Milk in PBS). Incubate the plate, shaking, at room temperature (about 23° C. to 25° C.) for 30 minutes. Just prior to use, remove blocking buffer and wash plate 4 times with TBST buffer.
Seeding Cells • 1. An NIH3T3 cell line overexpressing a chimeric receptor containing the EGFR extracellular domain and intracellular HER2 kinase domain can be used for this assay. • 2. Choose dishes having 80-90% confluence for the experiment. Trypsinize cells and stop reaction by adding 10% fetal bovine serum. Suspend cells in DMEM medium (10% CS DMEM medium) and centrifuge once at 1500 rpm, at room temperature for 5 minutes. • 3. Resuspend cells in seeding medium (DMEM, 0.5% bovine serum), and count the cells using trypan blue. Viability above 90% is acceptable. Seed cells in DMEM medium (0.5% bovine serum) at a density of 10,000 cells per well, 100 μl per well, in a 96 well microtiter plate. Incubate seeded cells in 5% CO2. at 37° C. for about 40 hours.
Assay Procedures • 1. Check seeded cells for contamination using an inverted microscope. Dilute drug stock (10 mg/ml in DMSO) 1:10 in DMEM medium, then transfer 5 μl to a […] well for a final drug dilution of 1:200 and a final DMSO concentration of 1%. Control wells receive DMSO alone. Incubate in 5% CO2 at 37° C. for two hours. • 2. Prepare EGF ligand: dilute stock EGF in DMEM so that upon transfer of 10 μl dilute EGF (1:12 dilution), 100 nM final concentration is attained. • 3. Prepare fresh HNTG* sufficient for 100 μl per well, and place on ice.
• 4. After 120 minutes incubation with drug, add prepared […] ligand to cells, 10 μl per well, to a final concentration of 100 nM. Control wells receive DMEM alone. Incubate with shaking, at room temperature, for 5 minutes. • 5. Remove drug, EGF, and DMEM. Wash cells twice with PBS. Transfer HNTG* to cells, 100 μl per well. Place on ice for 5 minutes. Meanwhile, remove blocking buffer from other ELISA plate and wash with TBST as described above. • 6. With a pipette tip securely fitted to a micropipettor, scrape cells from plate and homogenize cell material by repeatedly aspirating and dispensing the HNTG* lysis buffer. Transfer lysate to a coated, blocked, and washed ELISA plate. Incubate shaking at room temperature for one hour. • 7. Remove lysate and wash 4 times with TBST. Transfer freshly diluted anti-Ptyr antibody to ELISA plate at 100 μl per well. Incubate shaking at room temperature for 30 minutes in the presence of the anti-Ptyr antiserum (1:3000 dilution in TBST). • 8. Remove the anti-Ptyr antibody and wash 4 times with TBST. Transfer the freshly diluted TAGO anti-rabbit IgG antibody to the ELISA plate at 100 μl per well. Incubate shaking at room temperature for 30 minutes (anti-rabbit IgG antibody: 1:3000 dilution in TBST). • 9. Remove TAGO detection antibody and wash 4 times with TBST. Transfer freshly prepared ABTS/H2O2 solution to ELISA plate, 100 μl per well. Incubate shaking at room temperature for 20 minutes. (ABTS/H2O2 solution: 1.0 μl 30% H2O2 in 10 ml ABTS stock). • 10. Stop reaction by adding 50 μl 5N H2SO4 (optional), and determine O.D. at 410 nm. • 11. The maximal phosphotyrosine signal is determined by subtracting the value of the negative controls from the positive controls. […]

[4] = target: T3, flkGST (Homo sapiens, UniProt P35968); assay: bio flkGST assay; type: biochemical
T3 construct: GST
T3 sequence (P35968 786-1356 limits assumed): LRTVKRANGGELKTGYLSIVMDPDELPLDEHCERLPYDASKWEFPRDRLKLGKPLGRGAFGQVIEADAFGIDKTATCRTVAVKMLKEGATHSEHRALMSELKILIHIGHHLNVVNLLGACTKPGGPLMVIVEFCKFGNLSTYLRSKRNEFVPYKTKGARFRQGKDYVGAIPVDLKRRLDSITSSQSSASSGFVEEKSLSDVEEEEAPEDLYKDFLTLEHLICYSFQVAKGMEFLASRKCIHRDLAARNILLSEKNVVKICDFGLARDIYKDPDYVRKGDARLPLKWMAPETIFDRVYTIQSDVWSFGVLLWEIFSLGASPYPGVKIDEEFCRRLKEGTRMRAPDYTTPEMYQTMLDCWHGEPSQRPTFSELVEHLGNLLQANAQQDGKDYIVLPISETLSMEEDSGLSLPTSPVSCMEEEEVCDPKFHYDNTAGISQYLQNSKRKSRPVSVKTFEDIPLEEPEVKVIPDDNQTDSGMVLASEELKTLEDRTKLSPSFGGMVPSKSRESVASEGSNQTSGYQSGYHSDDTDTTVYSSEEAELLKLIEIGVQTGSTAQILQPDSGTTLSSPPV

T1 sequence (P09619 33-1106): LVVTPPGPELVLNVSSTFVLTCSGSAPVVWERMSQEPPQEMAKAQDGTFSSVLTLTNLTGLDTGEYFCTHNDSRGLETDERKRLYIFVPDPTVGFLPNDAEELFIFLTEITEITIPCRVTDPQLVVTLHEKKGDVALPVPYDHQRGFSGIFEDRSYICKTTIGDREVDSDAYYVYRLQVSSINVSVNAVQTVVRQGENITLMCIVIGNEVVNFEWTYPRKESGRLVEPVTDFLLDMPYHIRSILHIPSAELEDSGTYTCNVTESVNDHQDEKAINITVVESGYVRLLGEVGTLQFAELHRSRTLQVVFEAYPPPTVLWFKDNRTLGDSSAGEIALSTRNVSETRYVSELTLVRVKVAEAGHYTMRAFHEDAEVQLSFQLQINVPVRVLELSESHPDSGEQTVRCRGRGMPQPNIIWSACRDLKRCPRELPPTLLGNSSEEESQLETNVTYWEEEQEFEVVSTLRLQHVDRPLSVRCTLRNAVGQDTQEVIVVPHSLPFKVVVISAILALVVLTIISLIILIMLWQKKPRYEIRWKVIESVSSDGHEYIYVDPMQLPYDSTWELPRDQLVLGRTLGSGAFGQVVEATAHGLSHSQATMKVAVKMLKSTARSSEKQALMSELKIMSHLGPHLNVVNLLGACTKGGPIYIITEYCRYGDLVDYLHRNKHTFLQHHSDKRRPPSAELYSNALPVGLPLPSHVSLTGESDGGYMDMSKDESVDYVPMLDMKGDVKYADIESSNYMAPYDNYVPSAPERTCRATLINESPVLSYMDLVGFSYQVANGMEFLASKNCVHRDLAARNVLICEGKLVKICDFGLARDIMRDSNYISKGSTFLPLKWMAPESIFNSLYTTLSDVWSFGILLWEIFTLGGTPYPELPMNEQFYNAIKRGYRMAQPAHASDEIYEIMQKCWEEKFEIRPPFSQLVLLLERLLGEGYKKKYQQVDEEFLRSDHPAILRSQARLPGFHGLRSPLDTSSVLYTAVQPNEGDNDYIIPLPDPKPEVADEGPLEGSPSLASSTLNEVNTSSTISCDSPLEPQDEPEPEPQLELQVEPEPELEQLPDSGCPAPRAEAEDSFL
Chain of Myc-GyrB-FGFR fusion protein (P11362 478-767 limits assumed): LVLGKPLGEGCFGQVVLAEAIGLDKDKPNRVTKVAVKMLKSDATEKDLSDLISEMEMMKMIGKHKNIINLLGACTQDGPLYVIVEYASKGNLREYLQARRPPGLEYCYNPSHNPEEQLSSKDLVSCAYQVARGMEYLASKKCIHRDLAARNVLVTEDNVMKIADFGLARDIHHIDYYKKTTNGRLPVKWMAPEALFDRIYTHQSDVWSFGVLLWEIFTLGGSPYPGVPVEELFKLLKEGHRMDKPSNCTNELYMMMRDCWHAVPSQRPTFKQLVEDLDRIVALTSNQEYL

IC50 [1] [µM]	IC50 [2] [µM]	IC50 [3] [µM]	IC50 [4] [µM]	Compound
> 20	> 100			Cc1c(/C=C2\C(=O)Nc3ccc(Cl)cc32)[nH]c2ccccc12 [Example 168, 5-Chloro-3-(3-methyl-1H-indol-2-ylmethylene)-1,3-dihydro-indol-2-one]
> 20	> 100	> 100		O=C1Nc2ccc(Cl)cc2/C1=C/c1cc2ccccc2[nH]1 [Example 164, 5-Chloro-3-(1H-indol-2-ylmethylene)-1,3-dihydro-indol-2-one]
> 20		> 100		Cc1ccc2c(c1)/C(=C/c1[nH]c3ccccc3c1C)C(=O)N2 [Example 152, 5-Methyl-3-(3-methyl-1H-indol-2-ylmethylene)-1,3-dihydro-indol-2-one]
	9.97		6.32	CCOC(=O)c1c(C)[nH]c(/C=C2\C(=O)Nc3ccc(OC)cc32)c1CCCN(C)C [Example 120, 4-(3-Dimethylaminopropyl)-5-(5-methoxy-2-oxo-1,2-dihydroindol-3-ylidenemethyl)-2-methyl-1H-pyrrole-3-carboxylic acid ethyl ester]
	2.32		12.9	CCOC(=O)c1c(C)[nH]c(/C=C2\C(=O)Nc3ccc(S(N)(=O)=O)cc32)c1CCCN1CCCC1 [Example 130, 2-Methyl-5-(2-oxo-5-sulfamoyl-1,2-dihydroindol-3-ylidenemethyl)-4-(3-pyrrolidin-1-ylpropyl)-1H-pyrrole-3-carboxylic acid ethyl ester]
> 20	> 100	> 100		CC(=O)c1ccc2c(c1)C(=Cc1[nH]c3ccccc3c1C)C(=O)N2 [Example 157, 5-Acetyl-3-(3-methyl-1H-indol-2-ylmethylene)-1,3-dihydroindol-2-one]
	26.7		1	CCOC(=O)c1c(C)[nH]c(/C=C2\C(=O)Nc3ccc(OC)cc32)c1CCCN1CCOCC1 [Example 121, 5-(5-Methoxy-2-oxo-1,2-dihydroindol-3-ylidenemethyl)-2-methyl-4-(3-morpholin-4-ylpropyl)-1H-pyrrole-3-carboxylic acid ethyl ester]
> 20	> 100	> 100		Cc1c(/C=C2\C(=O)Nc3ccc(S(N)(=O)=O)cc32)[nH]c2ccccc12 [Example 153, 3-(3-Methyl-1H-indol-2-ylmethylene)-2-oxo-2,3-dihydro-1H-indole-5-sulfonic acid amide]
> 20	> 100			O=C1Nc2ccccc2/C1=C/c1cc2ccccc2[nH]1 [Example 163, 3-(1H-Indol-2-ylmethylene)-1,3-dihydro-indol-2-one]
	0.65		0.71	COc1ccc2c(c1)/C(=C/c1[nH]c3ccccc3c1CCCN(C)C)C(=O)N2 [Example 151, 3-[3-(3-Dimethylaminopropyl)-1H-indol-2-ylmethylene]-5-methoxy-1,3-dihydroindol-2-one]
> 20	8.02			O=C1Nc2cc(Cl)ccc2/C1=C/c1cc2ccccc2[nH]1 [Example 162, 6-Chloro-3-(1H-indol-2-ylmethylene)-1,3-dihydro-indol-2-one]
> 20	74.1		2.87	NS(=O)(=O)c1ccc2c(c1)/C(=C/c1cc3ccccc3[nH]1)C(=O)N2 [Example 159, 3-(1H-Indol-2-ylmethylene)-2-oxo-2,3-dihydro-1H-indole-5-sulfonic acid amide]
> 20	> 100		13.5	CCOC(=O)c1[nH]c(/C=C2\C(=O)Nc3ccccc32)c(CCC(=O)O)c1C [Example 117, 4-(2-Carboxyethyl)-3-methyl-5-(2-oxo-1,2-dihydroindol-3-ylidenemethyl)-1H-pyrrole-2-carboxylic acid ethyl ester]
> 20	> 100			Cc1c(/C=C2\C(=O)Nc3ccccc32)[nH]c2ccccc12 [Example 167, 3-(3-Methyl-1H-indol-2-ylmethylene)-1,3-dihydro-indol-2-one]

Reference: US6855730B2, “3-methylidenyl-2-indolinone modulators of protein kinase” (Sugen, Inc., priority 1998, dated 2005)
